For two compounds, Ki results are on record in BindingDB's records for PubMed 37866336 (The First Affiliated Hospital of China Medical University).

For test [1], the target named is Melatonin receptor type 1A (Homo sapiens, UniProt P48039). The test can be described thus: Binding affinity to human MT1 receptor expressed in CHO cells assessed as inhibition constant by HTRF method.
Test [2] addresses T1, Melatonin receptor type 1B (Homo sapiens, UniProt P49286).
T1 sequence (P49286 whole entry): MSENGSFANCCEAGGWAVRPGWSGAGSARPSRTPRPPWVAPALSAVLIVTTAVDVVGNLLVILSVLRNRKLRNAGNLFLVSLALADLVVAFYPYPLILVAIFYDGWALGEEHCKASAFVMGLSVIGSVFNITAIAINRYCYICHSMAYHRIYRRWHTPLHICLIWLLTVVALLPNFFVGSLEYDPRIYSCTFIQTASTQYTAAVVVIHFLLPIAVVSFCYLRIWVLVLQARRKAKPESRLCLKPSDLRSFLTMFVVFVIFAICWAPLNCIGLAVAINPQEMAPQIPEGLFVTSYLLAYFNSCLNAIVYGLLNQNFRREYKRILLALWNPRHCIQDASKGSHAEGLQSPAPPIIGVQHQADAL
The experiment in a line: Binding affinity to human MT2 receptor expressed in CHO cells assessed as inhibition constant by HTRF method. For orientation: In TR-FRET formats the signal depends on donor and acceptor labels being close together.

Sequence of Melatonin receptor type 1A (P48039 whole entry): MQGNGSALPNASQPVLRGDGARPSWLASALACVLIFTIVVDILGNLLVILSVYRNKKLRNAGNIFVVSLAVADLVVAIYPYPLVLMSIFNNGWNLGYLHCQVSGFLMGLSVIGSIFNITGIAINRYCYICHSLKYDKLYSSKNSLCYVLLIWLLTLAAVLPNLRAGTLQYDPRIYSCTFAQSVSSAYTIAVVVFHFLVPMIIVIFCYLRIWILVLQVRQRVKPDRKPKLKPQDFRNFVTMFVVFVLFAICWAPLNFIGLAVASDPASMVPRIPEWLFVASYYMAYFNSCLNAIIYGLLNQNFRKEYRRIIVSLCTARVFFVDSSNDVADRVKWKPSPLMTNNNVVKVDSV

For the compound `CCCn1c(NC(=O)Cc2coc3cc(OC)ccc23)nc2ccccc21` [Name not given], the Ki (as a rule, a measure of affinity in units of concentration, obtained from inhibition or displacement) in test [1] was determined as 36 nM.
As for `N#CN1CC[C@@H](NC(=O)c2ccc(-c3cnc4nccn4c3)cc2F)C1` [Name not given], in test [2], the Ki was determined as 36 nM.
